Here are results for six molecules from patent publication US8017602B2, “N-(2-(2-(5-hydroxy-3-oxo-3,4-dihydro-2H-benzo[b][1,4]oxazin-8-yl)ethylamino)ethyl)-3-(phenethoxy)propanamide derivatives, processes for their preparation, pharmaceutical compositions containing them and their use in therapy” (AstraZeneca AB, priority 2008, dated 2011).

In one experiment the target is T1, Adrenergic β2 (Homo sapiens, UniProt P07550).
T1 construct: Adherent H292 cells were removed from tissue culture flasks; endogenous in cells; host or cells: H292 cells
Briefly: Adrenergic β2 mediated cAMP production in H292 cells (AlphaScreen cAMP detection). The class given is cell-based. To be noted: for β2 Int Act: Intrinsic Activity, fraction relative to the maximum activity determined for formoterol; for EC50: cAMP production, 60 min at room temperature, 300 μM rolipram, read-out: β2 pEC50 (converted). The procedure: H292 cells were grown in 225 cm2 flasks incubator at 37° C., 5% CO2 in RPMI medium containing, 10% (v/v) FBS (foetal bovine serum) and 2 mM L-glutamine.
Adherent H292 cells were removed from tissue culture flasks by treatment with Accutase™ cell detachment solution for 15 min. Flasks were incubated for 15 min in a humidified incubator at 37° C., 5% CO2. Detached cells were re-suspended in RPMI media (containing 10% (v/v) FBS and 2 mM L-glutamine) at […]. 10000 cells in 100 μl were added to each well of a tissue-culture-treated 96-well plate and the cells incubated overnight in a humidified incubator at 37° C., 5% CO2. The culture media was removed and cells were washed twice with 100 μl assay buffer and replaced with 50 μL assay buffer (HBSS solution containing 10 mM HEPES pH7.4 and 5 mM glucose). Cells were rested at room temperature for 20 min after which time 25 μl of rolipram (1.2 mM made up in assay buffer containing 2.4% (v/v) dimethylsulphoxide) was added. Cells were incubated with rolipram for 10 min after which time test compounds were added and the cells were incubated for 60 min at room temperature. The final rolipram concentration in the assay was 300 μM and final vehicle concentration was 1.6% (v/v) dimethylsulphoxide. The reaction was stopped by removing supernatants, washing once with 100 μL assay buffer and replacing with 50 μL lysis buffer. The cell monolayer was frozen at −80° C. for 30 min (or overnight).
AlphaScreen™ cAMP Detection
The concentration of cAMP (cyclic adenosine monophosphate) in the cell lysate was determined using AlphaScreen™ methodology. The frozen cell plate was thawed for 20 min on a plate shaker then 10 μl of the cell lysate was transferred to a 96-well white plate. 40 μL of mixed AlphaScreen™ detection beads pre-incubated with biotinylated cAMP, was added to each well and the plate incubated at room temperature for 10 h in the dark. The AlphaScreen™ signal was measured using an EnVision spectrophotometer (Perkin-Elmer Inc.) with the recommended manufacturer's settings. cAMP concentrations were determined by reference to a calibration curve determined in the same experiment using standard cAMP concentrations. Concentration response curves for agonists were constructed and data was fitted to a four parameter logistic equation to determine both the pEC50 and Intrinsic Activity. Intrinsic Activity was expressed as a fraction relative to the maximum activity determined for formoterol in each experiment.

In experiment [1] the target is T2, recombinant human α1D receptor (Homo sapiens, UniProt P25100).
T2 construct: expressed in transfected cells; host or cells: HEK293
T2 sequence (P25100 1-572): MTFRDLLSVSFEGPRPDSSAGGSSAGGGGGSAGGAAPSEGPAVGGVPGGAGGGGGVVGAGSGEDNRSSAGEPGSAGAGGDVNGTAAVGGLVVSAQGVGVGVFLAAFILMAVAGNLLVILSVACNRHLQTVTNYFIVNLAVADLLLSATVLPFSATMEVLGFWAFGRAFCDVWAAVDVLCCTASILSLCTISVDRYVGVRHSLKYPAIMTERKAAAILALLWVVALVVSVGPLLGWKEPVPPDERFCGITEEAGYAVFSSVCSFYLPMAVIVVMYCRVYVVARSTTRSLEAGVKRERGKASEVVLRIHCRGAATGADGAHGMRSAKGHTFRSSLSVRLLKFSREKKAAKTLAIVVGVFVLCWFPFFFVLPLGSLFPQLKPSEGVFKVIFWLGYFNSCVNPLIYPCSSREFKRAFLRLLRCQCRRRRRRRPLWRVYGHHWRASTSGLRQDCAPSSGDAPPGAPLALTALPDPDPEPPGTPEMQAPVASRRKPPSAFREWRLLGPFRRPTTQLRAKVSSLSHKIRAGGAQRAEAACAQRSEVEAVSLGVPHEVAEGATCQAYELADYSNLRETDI
Briefly: Adrenergic α1D selectivity binding assay ([3H]-prazosin). To be noted: inhibition of [3H]-prazosin binding, HEK293 membranes, read-out: α1 bind pIC50 (converted). The procedure:
Membranes were prepared from human embryonic kidney 293 (HEK293) cells expressing recombinant human α1D receptor. These were diluted in Assay Buffer (50 mM HEPES, 1 mM EDTA, pH 7.4) to provide a final concentration of membranes that gave a clear window between maximum and minimum specific binding.
(§1) Assays were performed in U-bottomed 96-well polypropylene plates. 10 μl [^3H]-prazosin (0.3 nM final concentration) and 10 μl of test compound (10× final concentration) were added to each test well. For each assay plate 8 replicates were obtained for [^3H]-prazosin binding in the presence of 10 μl vehicle (10% (v/v) DMSO in Assay Buffer; defining maximum binding) or 10 μL BMY7378 (10 μM final concentration; defining non-specific binding (NSB)). Membranes were then added to achieve a final volume of 100 μL. The plates were incubated for 2 h at room temperature and then filtered onto PEI coated GF/B filter plates, pre-soaked for 1 h in Assay Buffer, using a 96-well plate Tomtec cell harvester. Five washes with 250 μl wash buffer (50 mM HEPES, 1 mM EDTA, pH 7.4) were performed at 4° C. to remove unbound radioactivity. The plates were dried then sealed from underneath using Packard plate sealers and MicroScint-O (50 μl) was added to each well. The plates were sealed (TopSeal A) and filter-bound radioactivity was measured with a scintillation counter (TopCount, Packard BioScience) using a 3-minute counting protocol.
Total specific binding (B0) was determined by subtracting the mean NSB from the mean maximum binding. NSB values were also subtracted from values from all other wells. […] Data was fitted to a four parameter logistic equation to determine the compound potency, which was expressed as pIC50 (negative log molar concentration inducing 50% inhibition of [^3H]-prazosin binding).

Experiment [2] deals with T3, recombinant human adrenergic beta 1 receptors (Homo sapiens, UniProt P08588).
T3 construct: purchased Euroscreen
As to the kind of experiment: Adrenergic β1 selectivity binding assay ([125I]-Iodocyanopindolol). To be noted: inhibition of [125I]-Iodocyanopindolol binding, human β1 membranes; read-out: β1 bind p IC50 (converted). As for the experimental part: Membranes containing recombinant human adrenergic beta 1 receptors were obtained from Euroscreen. These were diluted in Assay Buffer (50 mM HEPES, 1 mM EDTA, 120 mM NaCl, 0.1% gelatin, pH 7.4) to provide a final concentration of membranes that gave a clear window between maximum and minimum specific binding.
as §1, with “plates. 10 μL [^125I]-Iodocyanopindolol (0.036 nM final” for “plates. 10 μl [^3H]-prazosin (0.3 nM final”, “and 10 μL of test” for “and 10 μl of test”, “obtained for [^125I]-Iodocyanopindolol binding in” for “obtained for [^3H]-prazosin binding in”, “or 10 μl Propranolol (10 μM” for “or 10 μL BMY7378 (10 μM”, “with 250 μL wash buffer” for “with 250 μl wash buffer”, “mM EDTA, 120 mM NaCl, pH 7.4)” for “mM EDTA, pH 7.4)”
Total specific binding (B0) was determined by subtracting the mean NSB from the mean maximum binding. NSB values were also subtracted from values from all other wells. […] Data was fitted to a four parameter logistic equation to determine the compound potency, which was expressed as pIC50 (negative log molar concentration inducing 50% inhibition of [^125I]-Iodocyanopindolol binding).

The target in experiment [3] is T4, recombinant human Dopamine Subtype D2s receptors (Homo sapiens, UniProt P14416).
T4 construct: purchased Perkin Elmer
Briefly: Dopamine D2 selectivity binding assay ([3H]-spiperone). To be noted: inhibition of [3H]-spiperone binding, human D2s membranes; read-out: D2 bind pIC50 (converted). As for the experimental part:
Membranes containing recombinant human Dopamine Subtype D2s receptors were obtained from Perkin Elmer. These were diluted in Assay Buffer (50 mM HEPES, 1 mM EDTA, 120 mM NaCl, 0.1% gelatin, pH 7.4) to provide a final concentration of membranes that gave a clear window between maximum and minimum specific binding.
Assays were performed in U-bottomed 96-well polypropylene plates. 30 μL [^3H]-spiperone (0.16 nM final concentration) and 30 μl of test compound (10× final concentration) were added to each test well. For each assay plate 8 replicates were obtained for [^3H]-spiperone binding in the presence of 30 μL vehicle (10% (v/v) DMSO in Assay Buffer; defining maximum binding) or 30 μl Haloperidol (10 μM final concentration; defining non-specific binding (NSB)). Membranes were then added to achieve a final volume of 300 μL. The plates were incubated for 2 h at room temperature and then filtered onto PEI coated GF/B filter plates, pre-soaked for 1 h in Assay Buffer, using a 96-well plate Tomtec cell harvester. Five washes with 250 μl wash buffer (50 mM HEPES, 1 mM EDTA, 120 mM NaCl, pH 7.4) were performed at 4° C. to remove unbound radioactivity. The plates were dried then sealed from underneath using Packard plate sealers and MicroScint-O (50 μl) was added to each well. The plates were sealed (TopSeal A) and filter-bound radioactivity was measured with a scintillation counter (TopCount, Packard BioScience) using a 3-minute counting protocol.
Total specific binding (B0) was determined by subtracting the mean NSB from the mean maximum binding. NSB values were also subtracted from values from all other wells. […] Data was fitted to a four parameter logistic equation to determine the compound potency, which was expressed as pIC50 (negative log molar concentration inducing 50% inhibition of [^3H]-spiperone binding).

Where a name gives a salt, the structure may show the parent alone. Bounds are passed on as bounds.

T3 sequence (P08588 whole entry): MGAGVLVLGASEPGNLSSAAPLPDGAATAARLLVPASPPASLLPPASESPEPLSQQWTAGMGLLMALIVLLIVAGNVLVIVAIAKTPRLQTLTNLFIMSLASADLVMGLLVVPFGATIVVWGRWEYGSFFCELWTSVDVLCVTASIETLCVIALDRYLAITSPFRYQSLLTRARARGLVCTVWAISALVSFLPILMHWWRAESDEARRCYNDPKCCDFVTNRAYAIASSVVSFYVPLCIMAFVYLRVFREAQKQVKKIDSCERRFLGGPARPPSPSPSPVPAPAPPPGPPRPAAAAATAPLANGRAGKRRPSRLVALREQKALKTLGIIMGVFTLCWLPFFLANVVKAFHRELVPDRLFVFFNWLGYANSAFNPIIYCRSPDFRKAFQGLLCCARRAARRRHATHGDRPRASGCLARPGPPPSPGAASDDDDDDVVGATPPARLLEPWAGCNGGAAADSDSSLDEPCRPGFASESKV
T1 sequence (P07550 whole entry): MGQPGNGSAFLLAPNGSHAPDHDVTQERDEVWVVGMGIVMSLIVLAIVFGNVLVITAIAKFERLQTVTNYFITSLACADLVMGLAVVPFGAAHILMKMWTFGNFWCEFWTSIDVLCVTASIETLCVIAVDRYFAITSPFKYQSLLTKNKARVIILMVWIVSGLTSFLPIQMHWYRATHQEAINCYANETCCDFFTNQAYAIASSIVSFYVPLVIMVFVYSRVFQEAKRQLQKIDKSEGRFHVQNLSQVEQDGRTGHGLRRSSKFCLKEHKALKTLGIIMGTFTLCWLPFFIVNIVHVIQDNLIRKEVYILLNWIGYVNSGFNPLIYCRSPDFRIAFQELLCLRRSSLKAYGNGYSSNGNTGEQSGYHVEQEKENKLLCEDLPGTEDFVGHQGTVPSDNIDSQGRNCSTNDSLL
T4 sequence (P14416 1-414 isoform P14416-2): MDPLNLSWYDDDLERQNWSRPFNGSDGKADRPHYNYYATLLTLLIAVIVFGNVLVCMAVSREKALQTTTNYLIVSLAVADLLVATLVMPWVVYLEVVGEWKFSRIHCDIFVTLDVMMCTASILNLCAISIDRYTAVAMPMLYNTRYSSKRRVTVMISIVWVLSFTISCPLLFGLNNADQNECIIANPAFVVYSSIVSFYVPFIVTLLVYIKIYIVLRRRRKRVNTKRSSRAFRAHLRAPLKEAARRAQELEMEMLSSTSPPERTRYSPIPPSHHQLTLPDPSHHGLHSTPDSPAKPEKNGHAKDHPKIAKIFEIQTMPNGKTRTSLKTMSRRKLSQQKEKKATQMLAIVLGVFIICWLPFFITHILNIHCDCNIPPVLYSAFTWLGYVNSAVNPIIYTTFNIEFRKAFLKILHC

For `Cn1cc(-c2cccc(CCOCCC(=O)N(CCNCCc3ccc(O)c4c3OCC(=O)N4)C3CCCCC3)c2)cn1` [01 and 02], the “β2 Int Act” value at Adrenergic β2 worked out at 0.96. The EC50 on Adrenergic β2 was 6.31 nM. For the same molecule, the IC50 in experiment [1] was 1000 nM; in experiment [2], more than 7940 nM.

Regarding `Cn1cc(-c2cccc(CCOCCC(=O)N(CCNCCc3ccc(O)c4c3OCC(=O)N4)C3CCCCCC3)c2)nn1` [Example 06, N-Cycloheptyl-N-(2-(2-(5-hydroxy-3-oxo-3,4-dihydro-2H-benzo[b][1,4]oxazin-8-yl)ethylamino)ethyl)-3-(3-(1-methyl-1H-1,2,3-triazol-4-yl)phenethoxy)propanamide Trifluoroacetic Acid Salt], the “β2 Int Act” value at Adrenergic β2 worked out at 0.95. Further, the EC50 on Adrenergic β2 was 12.6 nM. Moreover, the values for the IC50 in experiment [1] and in experiment [3] were 1580 nM and 2000 nM, respectively.

Consider `O=C1COc2c(CCNCCN(C(=O)CCOCCc3cccc(-c4ncon4)c3)C3CCCCC3)ccc(O)c2N1` [Example 11, 3-(3-(1,2,4-Oxadiazol-3-yl)phenethoxy)-N-cyclohexyl-N-(2-(2-(5-hydroxy-3-oxo-3,4-dihydro-2H-benzo[b][1,4]oxazin-8-yl)ethylamino)ethyl)propanamide Trifluoroacetic Acid Salt], for which the “β2 Int Act” value at Adrenergic β2 was determined as 0.85. The EC50 at Adrenergic β2 was 10 nM. For the same molecule, the IC50 was 631 nM in experiment [1] and 3980 nM in experiment [3].

On to `CCCn1cc(-c2cccc(CCOCCC(=O)N(CCNCCc3ccc(O)c4c3OCC(=O)N4)C3CCCC3)c2)cn1` [Example 18, N-Cyclopentyl-N-(2-(2-(5-hydroxy-3-oxo-3,4-dihydro-2H -benzo[b][1,4]oxazin-8-yl)ethylamino)ethyl)-3-(3-(1-propyl-1H -pyrazol-4-yl)phenethoxy)propanamide Trifluoroacetic Acid Salt], for which the “β2 Int Act” value at Adrenergic β2 is reported as 0.97. Moreover, the EC50 on Adrenergic β2 is 10 nM. The IC50 in experiment [1] is 1000 nM; in experiment [2] it was more than 7940 nM.

As to `CC(C)[C@@H](C)N(CCNCCc1ccc(O)c2c1OCC(=O)N2)C(=O)CCOCCc1cccc(-c2cnn(C(C)C)c2)c1` [Example 20, (R)—N-(2-(2-(5-Hydroxy-3-oxo-3,4-dihydro-2H-benzo[b][1,4]oxazin-8-yl)ethylamino)ethyl)-3-(3-(1-isopropyl-1H-pyrazol-4-yl)phenethoxy)-N-(3-methylbutan-2-yl)propanamide Trifluoroacetic Acid Salt], on Adrenergic β2, the “β2 Int Act” value was found to be 1.00 and the EC50 was 10 nM. The IC50 in experiment [1] is 501 nM. Also, the IC50 in experiment [2] was more than 10000 nM.

For the molecule `CCn1cc(-c2cccc(CCOCCC(=O)N(CCNCCc3ccc(O)c4c3OCC(=O)N4)[C@H](C)C(C)C)c2)cn1` [Example 23, (R)-3-(3-(1-Ethyl-1H-pyrazol-4-yl)phenethoxy)-N-(2-(2-(5-hydroxy-3-oxo-3,4-dihydro-2H-benzo[b][1,4]oxazin-8-yl)ethylamino)ethyl)-N-(3-methylbutan-2-yl)propanamide Trifluoroacetic Acid Salt], on Adrenergic β2, the “β2 Int Act” value is recorded as 0.98 and the EC50 was 6.31 nM. Also, the IC50 in experiment [1] is 794 nM. Besides, the IC50 in experiment [2] is more than 10000 nM.
